PMC11117721, “A Fast-Binding, Functionally Reversible, COX-2 Radiotracer for CNS PET Imaging” (ACS Central Science, 2024)

Target: T1, COX-2 (Homo sapiens, UniProt P35354)
T1 sequence (P35354 18-604): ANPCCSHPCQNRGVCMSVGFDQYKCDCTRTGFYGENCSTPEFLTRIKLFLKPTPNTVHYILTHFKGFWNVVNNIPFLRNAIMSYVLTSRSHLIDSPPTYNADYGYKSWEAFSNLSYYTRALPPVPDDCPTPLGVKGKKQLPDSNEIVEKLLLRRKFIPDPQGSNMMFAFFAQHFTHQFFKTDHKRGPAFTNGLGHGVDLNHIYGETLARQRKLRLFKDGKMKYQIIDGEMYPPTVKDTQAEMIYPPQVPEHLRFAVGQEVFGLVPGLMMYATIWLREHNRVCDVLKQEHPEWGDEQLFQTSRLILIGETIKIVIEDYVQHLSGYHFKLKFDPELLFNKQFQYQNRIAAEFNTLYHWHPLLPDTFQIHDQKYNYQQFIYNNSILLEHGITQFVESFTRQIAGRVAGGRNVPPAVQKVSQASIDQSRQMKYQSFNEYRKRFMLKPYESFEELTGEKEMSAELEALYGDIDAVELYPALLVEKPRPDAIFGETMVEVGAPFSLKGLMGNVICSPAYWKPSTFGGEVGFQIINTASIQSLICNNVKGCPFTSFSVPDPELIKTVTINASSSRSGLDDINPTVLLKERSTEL
Assay: PET imaging of h-Thy1 COX-2 transgenic mice
Format: in vivo, mouse
Design: FLAG; P2A linker remnant (GFP cassette co-expressed, separated by P2A); host or cells: rat striatal (caudate putamen) neurons transduced in vivo with AAV2, human synapsin promoter
Settings: for SUV Average (9–21 min): h-Thy1 COX-2 mice (n = 5)
From the text: We performed additional validation of [^11C]BRD1158 through in vivo PET imaging of an hCOX-2 transgenic mouse line (Figure 3), which overexpressed human COX-2 primarily in neurons (Strain No. 010703, Jackson Laboratories). […] While we did perform contralateral sham (control virus) injections in the AAV rats to assess potential injection confounds, as COX-2 is part of the injury and inflammation response, it was important to validate in a model naïve to brain insult to mitigate how aspects of the AAV rat experimental design could have misled our interpretations of tracer specific binding.
In accordance with Massachusetts General Hospital Institutional Animal Care and Use Committee (IACUC) protocols, Sprague Dawley rats (300-500g, Charles River Laboratories), wildtype mice (Strain C57BL/6J), and human Thy-1-COX-2 transgenic line 303 mice (Strain 010703, Jackson Laboratories) were used in these studies. All animals were housed in a standard animal facility with access to conventional rodent food and water ad libitum and a 12 -hour day/night schedule. All animals were allowed to acclimate before any experime ntal procedures. Only male animals were used for imaging experiments .
Animals were induced under anesthesia using 1 -3% isoflurane in a carrier of 1.0 -1.5 L/min oxygen.
Maintenance of isoflurane depended on procedure and species, rats 2 -3% and mice 1-2%. Rats undergoing surgeries had higher isoflurane maintenance at 3 -4%. After induction, the animals’ body temperatures were regulated using a support heating pad or fan throughout all experiments.
Respiratory rates and body temperature were monitored through all imaging and surgical procedures, generally using a respiratory pad and rectal probe. Injections were made through the lateral tail vein.
Rats were cannulated with an IV extension using a 60 in, 0.3 mL volume IV extender (Smith Medical) and a 24 ga x 0.75 in IV catheter (McKesson). Mice were cannulated with Intramedic PE10 tubing (BD […]
Group 2 animals then […]
received one 4µL ICV injection of AAV2-GFP-hCOX2 to the Rcpu and one 4µL ICV injection of AAV2-GFP to the Lcpu, an injection paradigm that successfully led to robust, localized, unilateral COX -2 expression that we could use to compare radiotracers (Figure 2, SI Figure 8). Another rat (animal ID SD2006080) received one 4µL ICV injection of AAV2-GFP-hCOX2 to the Rcpu and no left caudate sham injection (SI
Figure 9). All surgical procedures were performed aseptically. Once rats were prepared and secured with a stereotaxic device (Stoelting Co, Wood Dale, IL), bregma was located. […]
A 33 -gauge neuro syringe (Hamilton, Reno, NV) was inserted around DV 3.5 mm for one injection. I njections were given slowly and the needle was kept in for 15 min to allow for adequate perfusion. […]

SUV Average (9–21 min) (cerebellum): 1.84 ± 0.56
SUV Average (9–21 min) (cortex): 1.68 ± 0.50
SUV Average (9–21 min) (striatum): 1.95 ± 0.55
time to significant signal differentiation from wild-type controls (hCOX-2 transgenic mice): 10 to 20 min
Structure (SMILES): [11CH3]S(=O)(=O)c1ccc(-c2cccc(NCc3ccoc3)n2)cc1 [[^11C]BRD1158]
